In patent publication US10736829B2, “Use of certain hydroxybenzoic acid amides for masking unpleasant taste impressions” (SYMRISE AG, priority 2015, dated 2020):

Experiments:
Type in all cases: in vivo
[1] = Masking of the bitter taste of peptides, panel of experts (n=15), randomized duo-tests: Trp-Trp-Trp; conditions: for Bitter taste peptide solution + 100 ppm compound: Trp-Trp-Trp 0.01% (w/v) in water, scale 0 to 10; for Reduction of bitterness (%): Trp-Trp-Trp 0.01% (w/v), 100 ppm compound, negative = less bitter
Procedure: (§1) The masking effect of 2,4-Dihydroxy-N-[(4-hydroxy-3-methoxy-phenyl)methyl]benzamide (compound 1) and N-[(4-hydroxy-3-methoxy-phenyl)methyl]-2,4-dimethoxy-benzamide (compound 5) on the bitter taste of peptides was examined in a panel of experts (n=15) in randomized duo-tests. Therefore, solutions of bitter peptides in water with or without the addition of the exemplary substances were tasted and the perceived bitter taste was evaluated on a scale from 0 (not bitter) to 10 (extremely bitter).

[2] = Masking of the bitterness of a mixture of bitter amino acids, panel of experts (n=13), randomized duo-test with nose clip; conditions: 100 ppm sample; for Reduction of bitterness in % compared to the mixture of amino acids: negative = less bitter, positive = more bitter; for Bitter taste amino acid mixture + sample: scale 0 [not bitter] to 10 [extremely bitter], n=13
Procedure: The masking effect of hydroxybenzoic acid amides (compounds 1-4) to be preferably used according to the invention as well as a comparative substance (compound 5) on a mixture of bitter amino acids (2 g/l L-Isoleucine; 3.5 g/l L-Leucine; 1 g/l L-Phenylalanine; 0.7 g/l L-Tryptophan in water) was evaluated by an panel of experts (n=13) (Evaluation 0 [not bitter] up to 10 [extremely bitter]). The tasting was performed with a nose clip, to exclude olfactory influences, and in a randomized duo-test. The bitterness of the mixture of amino acids was evaluated by the panel by 4.98±0,31 on a scale from 0 to 10.

[3] = Masking of the bitter taste of peptides, panel of experts (n=15), randomized duo-tests: Glu-Leu-Leu (comparative example); conditions: for Reduction of bitterness (%): Glu-Leu-Leu 0.2% (w/v) (comparative peptide), 100 ppm compound, negative = less bitter; for Bitter taste peptide solution + 100 ppm compound: Glu-Leu-Leu 0.2% (w/v) in water (comparative peptide), scale 0 to 10
Procedure: as §1

[4] = Masking of the bitter taste of peptides; conditions: 100 ppm; compound 1: plurality of peptides, except Leu-Trp and Glu-Leu-Leu
Procedure: as §1

[5] = Masking of the bitter taste of whey protein hydrolysate solution, panel of experts (n=8), randomized duo-tests; conditions: base 3% (w/v) whey protein hydrolysate in water; 100 ppm compound 1; aroma 1.6% (w/v) in the combination
Procedure: The bitter masking effect of 2,4-dihydroxy-N-[(4-hydroxy-3-methoxy-phenyl)methyl]benzamide (compound 1) on the bitter taste of whey protein hydrolysate was tested in a panel of experts [n=8] for a solution of 3% (w/v) of a commercially available whey protein hydrolysate (BioZate 3 of the company Davisco) in randomized duo-tests. The perceived bitter taste was evaluated on a scale from 0 [not bitter] to 10 [extremely bitter]. For comparison, a combination of compound 1 with a usual bitter masking aroma was tested, to examine possible additive effects.

[6] = Masking of the bitter taste of peptides, panel of experts (n=15), randomized duo-tests: Arg-Pro; conditions: for Bitter taste peptide solution + 100 ppm compound: Arg-Pro 0.1% (w/v) in water, scale 0 (not bitter) to 10 (extremely bitter); for Reduction of bitterness (%): Arg-Pro 0.1% (w/v), 100 ppm compound, negative = less bitter
Procedure: as §1

[7] = Masking of the bitter taste of peptides, panel of experts (n=15), randomized duo-tests: Tyr-Pro-Phe-Pro; conditions: for Bitter taste peptide solution + 100 ppm compound: Tyr-Pro-Phe-Pro 0.1% (w/v) in water, scale 0 to 10; for Reduction of bitterness (%): Tyr-Pro-Phe-Pro 0.1% (w/v), 100 ppm compound, negative = less bitter
Procedure: as §1

[8] = Masking of the bitter taste of peptides, panel of experts (n=15), randomized duo-tests: Leu-Trp (comparative example); conditions: for Reduction of bitterness (%): Leu-Trp 0.2% (w/v) (comparative peptide), 100 ppm compound, negative = less bitter; for Bitter taste peptide solution + 100 ppm compound: Leu-Trp 0.2% (w/v) in water (comparative peptide), scale 0 to 10
Procedure: as §1

COc1cc(CNC(=O)c2ccc(O)cc2O)ccc1O [compound 1, 2,4-Dihydroxy-N-[(4-hydroxy-3-methoxy-phenyl)methyl]benzamide]
Bitter taste peptide solution + 100 ppm compound [1]: 5.35 | Reduction of bitterness (%) [1]: −17.4% | Reduction of bitterness in % compared to the mixture of amino acids [2]: −25.9% | Bitter taste amino acid mixture + sample [2]: 3.90 | Reduction of bitterness (%) [3]: −3.77% | Bitter taste peptide solution + 100 ppm compound [3]: 5.1 | Effect on the bitterness of the peptides (in words) [4]: clear reduction of the bitterness | Reduction of the bitter taste [%] [5]: −24.5% | Bitter taste peptide solution + 100 ppm compound [6]: 1.47 | Reduction of bitterness (%) [6]: −20.9% | Bitter taste peptide solution + 100 ppm compound [7]: 3.43 | Reduction of bitterness (%) [7]: −23.3% | Reduction of bitterness (%) [8]: −4% | Bitter taste peptide solution + 100 ppm compound [8]: 6.5

COc1cc(Cn2c(=O)oc3cc(O)cc(O)c3c2=O)ccc1O [compound 2, 5,7-Dihydroxy-3-[(4-hydroxy-3-methoxy-phenyl)methyl]-1,3-benzoxazin-2,4-dione]
Reduction of bitterness in % compared to the mixture of amino acids [2]: −30.3% | Bitter taste amino acid mixture + sample [2]: 3.20

COc1cc(CNC(=O)c2ccc(O)cc2)ccc1O [compound 3, 4-Hydroxy-N-[(4-hydroxy-3-methoxy-phenyl)methyl]benzamide]
Reduction of bitterness in % compared to the mixture of amino acids [2]: −14.1% | Bitter taste amino acid mixture + sample [2]: 4.11

COc1cc(CNC(=O)c2ccccc2O)ccc1O [compound 4, 2-Hydroxy-N-[(4-hydroxy-3-methoxy-phenyl)methyl]benzamide]
Reduction of bitterness in % compared to the mixture of amino acids [2]: −7.7% | Bitter taste amino acid mixture + sample [2]: 4.74

COc1ccc(C(=O)NCc2ccc(O)c(OC)c2)c(OC)c1 [compound 5, N-[(4-hydroxy-3-methoxy-phenyl)methyl]-2,4-dimethoxy-benzamide, reference compound]
Bitter taste peptide solution + 100 ppm compound [1]: 6.40 | Reduction of bitterness (%) [1]: −1.08% | Reduction of bitterness in % compared to the mixture of amino acids [2]: 22.8% | Bitter taste amino acid mixture + sample [2]: 6.86 | Reduction of bitterness (%) [3]: 5.66% | Bitter taste peptide solution + 100 ppm compound [3]: 5.6 | Effect on the bitterness of the peptides (in words) [4]: not able to achieve a reduction of the bitterness | Bitter taste peptide solution + 100 ppm compound [6]: 2.05 | Reduction of bitterness (%) [6]: 10.81% | Bitter taste peptide solution + 100 ppm compound [7]: 4.68 | Reduction of bitterness (%) [7]: 4.46% | Reduction of bitterness (%) [8]: 4.41% | Bitter taste peptide solution + 100 ppm compound [8]: 7.1
